# In patent US4618612A (Medosan Industrie Biochimiche Riunite S.p.A., priority 1983, dated 1986):
# Columns and labels:
# [1] = tested on: rat platelet-rich plasma (ADP-induced platelet aggregation); assay: Anti-platelet aggregation activity in vitro (Born's method), rat platelet-rich plasma, ADP-induced; format: cell-based
# Procedure: Preparations (A), (B), (C), (D), (E) and (F) were administered "in vivo" orally and/or parenterally in 0.5% carboxymethylcellulose suspensions in physiological saline at neutral pH. When tested "in vitro", they were finely dispersed in neutral pH physiological saline.
# This was studied "in vitro" following Born's method (Born G. W. R., Nature, 194, 937 (1962)) and inducing platelet aggregation with ADP.
# Platelet-rich plasma was obtained by centrifugation for 10 minutes at 2,000 rpm of 9 parts rat blood to 1 part 3.13% sodium citrate solution. In performing the aggregation test, 0.2 ml of platelet rich plasm was mixed with a 0.9% NaCl solution to which the test substance was added to a final volume of 0.6 ml; the resulting mixture was incubated at 27° C. for 3 minutes. After inducement with ADP, aggregation was measured continuously with an Elvi 840 Aggregometer (Elvi Logos-Milan) to follow its course. The anti-aggregant effects were determined from the difference in the light transmission of the sample with respect to an ADP control.
# Table I reports the platelet aggregation inhibition using different doses of the test compounds at a constant ADP concentration.
# in vivo [2] = conditions: rat, rats
# carragenin-induced edema = assay: Carragenin-induced edema test (Winter); format: in vivo, rat
# Procedure: This effect was measured with an experimental model reproducing acute inflammation in rats: the carragenin-induced edema test according to C.
# in vivo [3] = conditions: mouse, mice
# [4] = ADP 2 μmol/l, dose 1 V/ml (Table II)
# [5] = ADP 5 μmol/l, dose 1 V/ml (Table II)
SMILES,"% Inhibition [1, 4] [%]","% Inhibition [1, 5] [%]","LD50 (in vivo [2]; ip, I.P.) [mg/kg]","LD50 (in vivo [2]; po, OS) [mg/kg]","% Edema Inhibition (carragenin-induced edema; I.P., 10 mg/kg, 3 h)","% Edema Inhibition (carragenin-induced edema; I.P., 10 mg/kg, 6 h)","% Edema Inhibition (carragenin-induced edema; I.P., 10 mg/kg, 24 h)","% Edema Inhibition (carragenin-induced edema; I.P., 50 mg/kg, 3 h)","% Edema Inhibition (carragenin-induced edema; I.P., 50 mg/kg, 6 h)","% Edema Inhibition (carragenin-induced edema; I.P., 50 mg/kg, 24 h)","% Edema Inhibition (carragenin-induced edema; I.P., 100 mg/kg, 3 h)","% Edema Inhibition (carragenin-induced edema; I.P., 100 mg/kg, 6 h)","% Edema Inhibition (carragenin-induced edema; I.P., 100 mg/kg, 24 h)","% Edema Inhibition (carragenin-induced edema; OS, 10 mg/kg, 3 h)","% Edema Inhibition (carragenin-induced edema; OS, 10 mg/kg, 6 h)","% Edema Inhibition (carragenin-induced edema; OS, 10 mg/kg, 24 h)","% Edema Inhibition (carragenin-induced edema; OS, 50 mg/kg, 3 h)","% Edema Inhibition (carragenin-induced edema; OS, 50 mg/kg, 6 h)","% Edema Inhibition (carragenin-induced edema; OS, 50 mg/kg, 24 h)","% Edema Inhibition (carragenin-induced edema; OS, 100 mg/kg, 3 h)",other results
"CC(=O)Oc1ccccc1C(=O)O [aspirin, reference compound]",29,19,–,–,–,–,–,–,–,–,–,–,–,–,–,–,–,–,–,–,"% Inhibition ([1]; ADP 7.08 μmol/l, dose 1 /ml (Table I)): 15%; % Inhibition ([1]; ADP 7.08 μmol/l, dose 5 /ml (Table I)): 60%; % Inhibition ([1]; ADP 7.08 μmol/l, dose 10 /ml (Table I)): 100%"
Cc1ccc(C(=O)c2ccc(CC(=O)NCC(=O)OCCn3cnc4c3c(=O)n(C)c(=O)n4C)n2C)cc1 [(E)],35,29,987,1340,"31,8%","29,0%","0,0%","56,9%","54,8%","12,0%","80,0%","76,9%","23,0%","34,0%","33,8%","0,0%","54,4%","49,8%","10,0%","78,8%","% Edema Inhibition (carragenin-induced edema; OS, 100 mg/kg, 6 h): 79,0%; % Edema Inhibition (carragenin-induced edema; OS, 100 mg/kg, 24 h): 32,6%; LD50 (in vivo [3]; ip, I.P.): 1100 mg/kg; LD50 (in vivo [3]; po, OS): 1400 mg/kg"
Cn1c(=O)c2c(ncn2CCCOC(=O)Cc2ccc(-n3cccc3)cc2)n(C)c1=O [(D)],31,24,675,1000,"31,8%","32,7%","1,0%","50,1%","45,9%","8,6%","67,0%","65,4%","9,6%","39,0%","32,0%","0,0%","53,1%","52,0%","11,6%","66,8%","% Edema Inhibition (carragenin-induced edema; OS, 100 mg/kg, 6 h): 64,1%; % Edema Inhibition (carragenin-induced edema; OS, 100 mg/kg, 24 h): 16,7%; LD50 (in vivo [3]; ip, I.P.): 780 mg/kg; LD50 (in vivo [3]; po, OS): 1100 mg/kg"
